Data: patent US7968572B2, “Nitrogen-containing heterocyclic compound and pharmaceutical application thereof” (Ono Pharmaceuticals Co., Ltd., priority 2005, dated 2011)

Assays:
[1] = test system: TNF-α production induced by lipopolysaccharide (LPS) in rats; experiment: Rat cytokine-production model; type: in vivo; details: male SD rat, oral 0.3 mg/kg, LPS 10 μg/kg intravenously after 8 hours, plasma TNF-α ninety minutes after LPS; read-out: Inhibition rate (%) (Dose of compound: 0.3 mg/kg)
Experimental: Rat Cytokine-Production Model
The in vivo effect of the compound of the present invention was studied on TNF-α production induced by lipopolysaccharide (LPS) in rats.
A vehicle containing the compound of the present invention was orally administered to male SD rat (Charles River Japan, Inc.), and after 8 hours, lipopolysaccharide (LPS, 055:B5, Difco) was intravenously administered at the dose of 10 μg/kg (5 animals/group). Only a vehicle was orally administered to a control group (5 animals). Ninety minutes after the LPS treatment, heparinized blood collection was performed via the abdominal vena cava under anesthesia with ether, and blood plasma was obtained by centrifugation (12,000 rpm, 3 minutes, 4° C.). The obtained blood plasma sample was stored at −80° C. until it was used. TNF-α in the blood plasma was measured using an ELISA kit from R&D System (#RTA00).
The inhibitory activity of the compound of the present invention against TNF-α production was calculated as an inhibition rate (%) according to the following equation: Inhibition rate (%)={(AC−AX)/AC}×100
wherein AC is a measured value in case where no test compound was administered under LPS induction, and
AX is a measured value in case where a test compound was administered under LPS induction.

[2] = test system: TNF-α production stimulated by lipopolysaccharide (LPS) in THP-1; experiment: Inhibitory activity against TNF-α production using human cell lines (LPS-stimulated THP-1); type: cell-based; details: 1.5 h, THP-1 cells, LPS stimulation, 90 minutes at 37° C., TNF-α by ELISA
Experimental: Inhibitory Activity against TNF-α Production using Human Cell Lines
Using THP-1 which is a human monocytic cell line, the inhibitory effect of the compound of the present invention against TNF-α production stimulated by lipopolysaccharide (LPS) was studied.
Each 50 μL of lipopolysaccharide (LPS; 055:B5, Difco) prepared to a concentration of 40 ng/mL using RPMI-1640 medium containing 10% fetal calf serum (hereinafter abbreviated to RPMI-1640) and RPMI-1640 containing the compound of the present invention was added to a 96-well plate for cell culture. 100 μL of the cell suspension of THP-1 (Dainippon Pharmaceutical Co., Ltd, #06-202) prepared to a cell density of 2×10^6 cells/mL using RPMI-1640 was added and cultured for 90 minutes at 37° C. in an incubator (5% CO2, 95% air). After completion of the reaction, the culture medium supernatant was recovered and the amount of produced TNF-α was measured using an ELISA kit (Invitrogen, #850090192).
The inhibitory activity against TNF-α production, which is the effect of the compound of the present invention, was calculated as an inhibition rate (%) by the following equation: Inhibition rate (%)={(AC−AX)/(AC−AB)}×100
wherein AB is a measured value without LPS induction;
AC is a measured value with LPS induction in the absence of a test compound; and
AX is a measured value with LPS induction in the presence of a test compound.
Inhibition rate of compounds with each concentration was calculated, and a value indicating 50% inhibition (IC50) was determined from the inhibition curve.

[3] = test system: Chinese hamster lung cells (CHL/IU); experiment: Phospholipidosis detection system using a fluorescence labeling phospholipid analog (NBD-PE); type: cell-based; details: for Pospholipid accumulation increasing ratio (% of 30 uM amiodarone) (Dose of compound: 100 uM): about 24 hours with NBD-PE; for Judgment: phospholipidosis inducing activity, NBD-PE
Experimental: Study by a Phospholipidosis Detection System using a Fluorescence Labeling Phospholipid Analog Cell suspension (7×10^4 cells/ml) of Chinese hamster lung cells (CHL/IU) prepared using MEM (minimum essential medium) was added to a 96 well plate (96 well clear bottom plate) by 100 μL/necessary number of wells (2 wells for 1 dosage) and cultured for about 24 hours. After the culturing and subsequent removal of the supernatants on the 96 well plate, the compounds having respective concentrations prepared by dissolving or suspending in MEM medium containing 25 μmol/L of nitrobenzoxazole dipalmitoyl phosphatidyl ethanolamine (NBD-PE) (hereinafter abbreviated to NBD-PE medium) were added thereto by 100 μL/ well and treated for about 24 hours. Treating concentration of each compound was set to be 6.25, 12.5, 25, 50 or 100 μmol/L. […] In this connection, 5 wells of an untreated control (MEM medium alone) or an NBD-PE control (prepared by adding 1/100 volume of DMSO to the NBD-PE medium) were arranged for each compound and cultured in the same manner. After completion of the culturing and subsequent two times of washing with 100 μL/well of phosphate buffered saline (hereinafter abbreviated to PBS) (−), 100 μL of the MEM medium was added to all of the treated wells including two empty wells for the WST-1 background control and cultured for about 0.5 hour. Fluorescence intensity of each well was measured using a microplate reader (manufactured by Molecular Devices, SPECTRA max M2; excitation wavelength 485 nm/fluorescence wavelength 535 nm). Using average value of 2 wells for each dosage, the phospholipid increasing ratio (%) based on NBD-PE control was calculated using the following formula. Phospholipid accumulation increasing ratio (%)=100×(fluorescence intensity of substance to be tested−fluorescence intensity of untreated control)/(fluorescence intensity of NBD-PE control−fluorescence intensity of untreated control) (iii) Cytotoxicity Test The Pre value was calculated by measuring the 96 well plate which was measured in the measurement of phospholipid accumulation, using the microplate reader (manufactured by Molecular Devices, SPECTRA max M2) at a dominant wavelength of 450 nm and a correction wavelength of 690 nm. Premix WST-1 was added to the pre-measured 96 well plate by 5 μL/well. After 2 to 4 hours of culture, the Aft value was calculated by measuring in the same manner as in the Pre measurement. The background control value was subtracted from each of the measured values. Using the value obtained by subtracting the Pre value from the Aft value, the cell growth ratio (%) was calculated using the following formula.

Structure (SMILES)	inhibition at 0.3 mg/kg [1]	IC50 [2]	Pospholipid accumulation increasing ratio (% of 30 uM amiodarone) (Dose of compound: 100 uM) [3]	Judgment [3]
CC(C)(O)c1nc(-c2ccc(=O)n(-c3c(F)cccc3F)c2)c(-c2ccc(F)cc2F)o1 [Example 7 (21), 1-(2,6-difluorophenyl)-5-[5-(2,4-difluorophenyl)-2-(1-hydroxy-1-methylethyl)-1,3-oxazol-4-yl]-2(1H)-pyridinone]	85%	1.7 nM	8 % of 30 uM amiodarone	Negative
O=c1ccc(-c2nc(C(O)(CO)CO)oc2-c2ccc(F)cc2F)cn1-c1c(F)cccc1F [Example 7 (39), 1-(2,6-difluorophenyl)-5-{5-(2,4-difluorophenyl)-2-[1,2-dihydroxy-1-(hydroxymethyl)ethyl]-1,3-oxazol-4-yl}-2(1H)-pyridinone]	64%	1.8 nM	11 % of 30 uM amiodarone	Negative
C[C@@](O)(CO)c1nc(-c2ccc(=O)n(-c3c(F)cccc3F)c2)c(-c2ccc(F)cc2F)o1 [Example 167 (1), 1-(2,6-difluorophenyl)-5-{5-(2,4-difluorophenyl)-2-[(1R)-1,2-dihydroxy-1-methylethyl]-1,3-oxazol-4-yl}-2(1H)-pyridinone]	73%	0.8 nM	3 % of 30 uM amiodarone	Negative
C[C@](O)(CO)c1nc(-c2ccc(=O)n(-c3c(F)cccc3F)c2)c(-c2ccc(F)cc2F)o1 [Example 167 (2), 1-(2,6-difluorophenyl)-5-{5-(2,4-difluorophenyl)-2-[(1S)-1,2-dihydroxy-1-methylethyl]-1,3-oxazol-4-yl}-2(1H)-pyridinone]	64%	1.1 nM	18 % of 30 uM amiodarone	Negative
CC(C)(O)[C@H](O)c1nc(-c2ccc(F)cc2F)c(-c2ccc(=O)n(-c3c(F)cccc3F)c2)o1 [Example 206, 1-(2,6-difluorophenyl)-5-{4-(2,4-difluorophenyl)-2-[(1S)-1,2-dihydroxy-2-methylpropyl]-1,3-oxazol-5-yl}-2(1H)-pyridinone]	79%	0.9 nM	10 % of 30 uM amiodarone	Negative
CC(C)(O)[C@@H](O)c1nc(-c2ccc(F)cc2F)c(-c2ccc(=O)n(-c3c(F)cccc3F)c2)o1 [Example 207, 1-(2,6-difluorophenyl)-5-{4-(2,4-difluorophenyl)-2-[(1R)-1,2-dihydroxy-2-methylpropyl]-1,3-oxazol-5-yl}-2(1H)-pyridinone]	94%	0.6 nM	11 % of 30 uM amiodarone	Negative
C[C@@](O)(CO)c1nc(-c2ccc(F)cc2F)c(-c2ccc(=O)n(-c3c(F)cccc3F)c2)o1 [Example 211, 1-(2,6-difluorophenyl)-5-{4-(2,4-difluorophenyl)-2-[(1R)-1,2-dihydroxy-1-methylethyl]-1,3-oxazol-5-yl}-2(1H)-pyridinone]	85%	0.6 nM	8 % of 30 uM amiodarone	Negative
CC(C)(O)Cc1nc(-c2ccc(F)cc2F)c(-c2ccc(=O)n(-c3c(F)cccc3F)c2)o1 [Example 220, 1-(2,6-difluorophenyl)-5-[4-(2,4-difluorophenyl)-2-(2-hydroxy-2-methylpropyl)-1,3-oxazol-5-yl]-2(1H)-pyridinone]	88%	1.4 nM	11 % of 30 uM amiodarone	Negative
O=c1ccc(-c2oc(C(O)(CO)CO)nc2-c2ccc(F)cc2F)cn1-c1c(F)cccc1F [Example 223, 1-(2,6-difluorophenyl)-5-{4-(2,4-difluorophenyl)-2-[1,2-dihydroxy-1-(hydroxymethyl)ethyl]-1,3-oxazol-5-yl}-2(1H)-pyridinone]	72%	2.1 nM	12 % of 30 uM amiodarone	Negative
CC(C)(O)[C@@H](O)c1nc(-c2ccc(=O)n(-c3c(F)cccc3F)c2)c(-c2ccc(F)cc2F)o1 [Example 227 (1), 1-(2,6-difluorophenyl)-5-{5-(2,4-difluorophenyl)-2-[(1R)-1,2-dihydroxy-2-methylpropyl]-1,3-oxazol-4-yl}-2(1H)-pyridinone]	88%	0.7 nM	13 % of 30 uM amiodarone	Negative
CC(C)(O)[C@H](O)c1nc(-c2ccc(=O)n(-c3c(F)cccc3F)c2)c(-c2ccc(F)cc2F)o1 [Example 227, 1-(2,6-difluorophenyl)-5-{5-(2,4-difluorophenyl)-2-[(1S)-1,2-dihydroxy-2-methylpropyl]-1,3-oxazol-4-yl}-2(1H)-pyridinone]	65%	1.7 nM	12 % of 30 uM amiodarone	Negative
